This note sets out measurements from ChEMBL document CHEMBL1157519, “Cytotoxic acylated triterpene saponins from the husks of Xanthoceras sorbifolia” (J Nat Prod, 2008).

Structures are written as SMILES.

The assay deals with OVCAR-3. Put plainly: Growth inhibition of human OVCAR-3 cells by MTT assay. The assay is classed as functional, cell-based.
Molecule `C/C=C(/C)C(=O)O[C@H]1[C@H](OC(=O)/C(C)=C\C)[C@]2(CO)[C@H](O)[C@H](O)[C@]3(C)C(=CC[C@@H]4[C@@]5(C)CC[C@H](O[C@@H]6O[C@H](C(=O)O)[C@@H](O)[C@H](O[C@@H]7O[C@@H](CO)[C@H](O)[C@H]7O)[C@H]6O[C@@H]6O[C@H](CO)[C@H](O)[C@H](O)[C@H]6O)[C@@H](C)[C@@H]5CC[C@]43C)[C@@H]2CC1(C)C` displayed an IC50 of 4 µM. `C/C=C(/C)C(=O)O[C@H]1[C@H](OC(=O)/C(C)=C\C)[C@]2(CO)[C@H](O)C[C@]3(C)C(=CC[C@@H]4[C@@]5(C)CC[C@H](O[C@@H]6O[C@H](C(=O)O)[C@@H](O)[C@H](O[C@@H]7O[C@@H](CO)[C@H](O)[C@H]7O)[C@H]6O[C@@H]6O[C@H](CO)[C@H](O)[C@H](O)[C@H]6O)[C@@H](C)[C@@H]5CC[C@]43C)[C@@H]2CC1(C)C` came in with an IC50 of 4.8 µM. Molecule `C/C=C(/C)C(=O)O[C@H]1[C@H](O)[C@]2(COC(=O)C(C)CC)[C@H](O)[C@H](O)[C@]3(C)C(=CC[C@@H]4[C@@]5(C)CC[C@H](O[C@@H]6O[C@H](C(=O)O)[C@@H](O)[C@H](O[C@@H]7O[C@@H](CO)[C@H](O)[C@H]7O)[C@H]6O[C@@H]6O[C@H](CO)[C@@H](O)[C@H](O)[C@H]6O)[C@@H](C)[C@@H]5CC[C@]43C)[C@@H]2CC1(C)C` (some centres undefined) had a concentration for half-maximal inhibition (IC50) of 13.1 µM.

Take `C/C=C(/C)C(=O)O[C@H]1[C@H](OC(=O)C(C)C)[C@]2(CO)[C@H](O)[C@H](O)[C@]3(C)C(=CC[C@@H]4[C@@]5(C)CC[C@H](O[C@@H]6O[C@H](C(=O)O)[C@@H](O)[C@H](O[C@@H]7O[C@@H](CO)[C@H](O)[C@H]7O)[C@H]6O[C@@H]6O[C@H](CO)[C@H](O)[C@H](O)[C@H]6O)[C@@H](C)[C@@H]5CC[C@]43C)[C@@H]2CC1(C)C`: the half-inhibitory concentration (IC50) was determined as 4.2 µM.
